This is an account of results in ChEMBL document CHEMBL1127988, “Differential binding and dopamine uptake activity of cocaine analogues modified at nitrogen” (Bioorg Med Chem Lett, 1994).

Each structure is given as a SMILES string.

Assay [1] has as its target Sodium-dependent dopamine transporter (Rattus norvegicus, UniProt P23977). Briefly: Binding affinity to inhibit [3H]mazindol binding in rat corpus striatum P2 synaptosomes. In kind it is subcellular.
The species entered for assay [2] is Rattus norvegicus. Briefly: Inhibitory activity towards [3H]dopamine uptake in rat corpus striatum P2 synaptosomes. It counts as functional.
The target in assay [3] is Sodium-dependent dopamine transporter (Rattus norvegicus) (UniProt P23977). The following applies: Corpus striatum; 1111 uM.
Description: Maximum percent inhibition of [3H]mazindol binding in rat corpus striatum P2 synaptosome at 1111 uM
Assay [4] has the same target. Briefly: Maximum percent inhibition of [3H]mazindol binding in rat corpus striatum P2 synaptosome at 1000 uM. It counts as tissue-based.
Assay [5] is filed under the species Rattus norvegicus. Briefly: Maximum percent inhibition of dopamine uptake in rat corpus striatum P2 synaptosome at 1000 uM. In kind it is functional.

Sequence of Sodium-dependent dopamine transporter (Rattus norvegicus) (P23977 whole entry): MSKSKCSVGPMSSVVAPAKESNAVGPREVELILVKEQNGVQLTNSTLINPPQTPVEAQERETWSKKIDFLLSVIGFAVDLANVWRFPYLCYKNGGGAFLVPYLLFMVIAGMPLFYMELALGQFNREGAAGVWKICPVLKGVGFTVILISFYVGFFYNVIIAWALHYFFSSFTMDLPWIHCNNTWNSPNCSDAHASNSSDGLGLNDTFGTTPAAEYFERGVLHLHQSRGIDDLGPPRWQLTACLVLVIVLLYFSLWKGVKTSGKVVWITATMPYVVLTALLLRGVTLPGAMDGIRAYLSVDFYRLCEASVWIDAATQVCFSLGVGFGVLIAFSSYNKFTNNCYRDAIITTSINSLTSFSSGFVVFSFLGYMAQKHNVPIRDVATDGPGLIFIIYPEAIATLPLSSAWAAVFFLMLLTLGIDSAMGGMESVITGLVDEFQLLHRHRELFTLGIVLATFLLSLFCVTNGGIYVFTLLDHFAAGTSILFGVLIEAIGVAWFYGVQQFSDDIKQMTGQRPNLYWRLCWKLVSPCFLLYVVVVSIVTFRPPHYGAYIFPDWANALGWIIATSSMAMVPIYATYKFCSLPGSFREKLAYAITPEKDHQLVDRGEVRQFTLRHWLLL
Sequence of Sodium-dependent dopamine transporter (P23977 whole entry): as above

In the case of `COC(=O)CN1C2CCC1C(C(=O)OC)C(OC(=O)c1ccccc1)C2` (centres undefined), the Ki in assay [1] worked out at 0.48 µM; in assay [2] it was 1.6 µM.

`COC(=O)C1C(OC(=O)c2ccccc2)CC2CCC1N2CC(=O)O` (centres undefined): the Ki in assay [1] was found to be 0.38 µM; in assay [2], 2.1 µM.

For the molecule `COC(=O)C1C(OC(=O)c2ccccc2)CC2CCC1N2[N+](=O)[O-]` (centres undefined), the figures for the Ki in assay [1] and in assay [2] were 7.5 µM and 21.2 µM, respectively.

For `COC(=O)C1C(OC(=O)c2ccccc2)CC2CCC1N2CCO` (centres undefined), the results for the Ki in assay [1] and in assay [2] were 0.7 µM and 1.6 µM, respectively.

On to `O=C(OC1CC2CCC3C1C(=O)NN23)c1ccccc1` (centres undefined), for which the Ki in assay [1] turned out to be 44.9 µM; in assay [2] it was 115 µM. Moreover, the inhibition in assay [3] came to 83%.

Regarding `COC(=O)C1C(OC(=O)c2ccccc2)CC2CCC1N2NC(C)=O` (centres undefined), the inhibition constant (Ki) in assay [1] and in assay [2] was greater than 1000 µM in each case. Further, the values for the inhibition in assay [4] and in assay [5] were 42% and 41%, respectively.

For the molecule `COC(=O)C1C(OC(=O)c2ccccc2)CC2CCC1N2N=O` (centres undefined), the Ki in assay [1] came to 99.5 µM; in assay [2] it was 232 µM. Further, the values for the inhibition in assay [4] and in assay [5] were 82% and 77%, respectively.

The Ki is the equilibrium dissociation constant of an inhibitor or competing ligand from its target. A high value points to a looser hold on the target. The inhibition is the percentage by which the read-out fell short of the control. A low value points to a weak effect.
